Experimental data from ChEMBL document CHEMBL1201862, “PubChem BioAssay data set” (2004).
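Compound exposure: 48 hours, 5 concentrations, 96-well plates. Here, GI50 denotes the concentration required for 50% inhibition of growth.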 Active and inactive are the calls of the source. No stated cut-off is given here; in the data, active = GI50 up to about 1.1 µM and inactive = higher.

Columns and labels:
Assay in all cases: NCI-60 cell line screen, 48 h
[1] = tested on: COLO 205
[2] = tested on: EKVX
[3] = tested on: HCC 2998
[4] = tested on: HCT-15
[5] = tested on: HT-29
[6] = tested on: Hs-578T
[7] = tested on: MDA-MB-231
[8] = tested on: MDA-MB-435
[9] = tested on: Malme-3M
[10] = tested on: NCI-H522
[11] = tested on: NCI/ADR-RES
[12] = tested on: OVCAR-3
[13] = tested on: OVCAR-8
[14] = tested on: SK-MEL-28
[15] = tested on: SNB-19
[16] = tested on: SW-620
[17] = tested on: UACC-257

COc1ccc(/C=N/NC(=O)c2ccc(O)c(CN(C)C)c2)cc1
GI50 [1]: > 100 µM (inactive)
GI50 [2]: > 100 µM (inactive)
GI50 [3]: > 100 µM (inactive)
GI50 [4]: > 100 µM
GI50 [5]: > 100 µM (inactive)
GI50 [6]: > 100 µM (inactive)
GI50 [7]: > 100 µM (inactive)
GI50 [8]: 47.3 µM (inactive)
GI50 [9]: > 100 µM (inactive)
GI50 [10]: 10.5 µM (inactive)
GI50 [11]: > 100 µM (inactive)
GI50 [12]: > 100 µM (inactive)
GI50 [13]: > 100 µM (inactive)
GI50 [14]: > 100 µM (inactive)
GI50 [15]: > 100 µM (inactive)
GI50 [16]: > 100 µM (inactive)
GI50 [17]: > 100 µM (inactive)

NC1(c2cc3ccccc3s2)CCCC1
GI50 [1]: 22.9 µM (inactive)
GI50 [2]: > 100 µM (inactive)
GI50 [3]: 21.2 µM (inactive)
GI50 [4]: 65.2 µM
GI50 [5]: 32.9 µM (inactive)
GI50 [6]: > 100 µM (inactive)
GI50 [7]: 83.8 µM (inactive)
GI50 [8]: 41 µM (inactive)
GI50 [9]: 36.9 µM (inactive)
GI50 [10]: 92.5 µM (inactive)
GI50 [11]: 78.9 µM (inactive)
GI50 [12]: > 100 µM (inactive)
GI50 [13]: > 100 µM (inactive)
GI50 [14]: 23.7 µM (inactive)
GI50 [15]: > 100 µM (inactive)
GI50 [16]: 49.2 µM (inactive)
GI50 [17]: 31 µM (inactive)

c1ccc2c(c1)CCCN1CCc3ccccc3C21 (configuration not stated)
GI50 [1]: 46.7 µM (inactive)
GI50 [2]: 39.9 µM (inactive)
GI50 [3]: 44.3 µM (inactive)
GI50 [4]: > 100 µM
GI50 [5]: 29 µM (inactive)
GI50 [6]: > 100 µM (inactive)
GI50 [7]: 48.1 µM (inactive)
GI50 [8]: 19.8 µM (inactive)
GI50 [9]: > 100 µM (inactive)
GI50 [10]: > 100 µM (inactive)
GI50 [11]: 78.3 µM (inactive)
GI50 [12]: > 100 µM (inactive)
GI50 [13]: > 100 µM (inactive)
GI50 [14]: 31.4 µM (inactive)
GI50 [15]: 92.3 µM (inactive)
GI50 [16]: 35.5 µM (inactive)
GI50 [17]: 77.1 µM (inactive)

Cn1c(=O)c2c(no[n+]2[O-])n(C)c1=O
GI50 [1]: 23 µM (inactive)
GI50 [2]: 28.4 µM (inactive)
GI50 [3]: > 100 µM (inactive)
GI50 [4]: > 100 µM
GI50 [5]: 31.2 µM (inactive)
GI50 [6]: 22.6 µM (inactive)
GI50 [7]: 21.7 µM (inactive)
GI50 [8]: 20 µM (inactive)
GI50 [9]: 18.5 µM (inactive)
GI50 [10]: 16.1 µM (inactive)
GI50 [11]: 22.9 µM (inactive)
GI50 [12]: > 100 µM (inactive)
GI50 [13]: 19.1 µM (inactive)
GI50 [15]: 22.3 µM (inactive)
GI50 [16]: 25.4 µM (inactive)
GI50 [17]: 36.9 µM (inactive)

O=C1CC(/C=C/c2ccco2)=C(O)C1=O
GI50 [1]: 15.7 µM (inactive)
GI50 [2]: 15.7 µM (inactive)
GI50 [3]: 17.9 µM (inactive)
GI50 [4]: 13.5 µM
GI50 [5]: 11.7 µM (inactive)
GI50 [6]: 16.7 µM (inactive)
GI50 [7]: 17.7 µM (inactive)
GI50 [8]: 16.4 µM (inactive)
GI50 [9]: 11.6 µM (inactive)
GI50 [10]: 12.2 µM (inactive)
GI50 [11]: 24.2 µM (inactive)
GI50 [12]: 13 µM (inactive)
GI50 [13]: 13.8 µM (inactive)
GI50 [14]: 28.8 µM (inactive)
GI50 [15]: 14.8 µM (inactive)
GI50 [16]: 10.2 µM (inactive)
GI50 [17]: 15.7 µM (inactive)

CC(=O)OCCCC(NC(=O)OC(C)(C)C)C(=O)NC(CCCOC(C)=O)C(=O)NC(Cc1ccc([N+](=O)[O-])cc1)C(=O)NCC(=O)OCc1ccccc1 (configuration not stated)
GI50 [1]: 17.6 µM (inactive)
GI50 [2]: 18.3 µM (inactive)
GI50 [3]: 18.9 µM (inactive)
GI50 [4]: 15.1 µM
GI50 [5]: 17.9 µM (inactive)
GI50 [6]: 14 µM (inactive)
GI50 [7]: 13 µM (inactive)
GI50 [8]: 17.3 µM (inactive)
GI50 [9]: 19.9 µM (inactive)
GI50 [10]: 18.1 µM (inactive)
GI50 [11]: 19.2 µM (inactive)
GI50 [12]: 16.5 µM (inactive)
GI50 [13]: 17.3 µM (inactive)
GI50 [14]: 17.9 µM (inactive)
GI50 [15]: 17.8 µM (inactive)
GI50 [16]: 16.9 µM (inactive)
GI50 [17]: 15.3 µM (inactive)

CN(C)CCN1C(=O)c2ccccc2C1(O)c1ccc(Cl)cc1 (configuration not stated)
GI50 [1]: > 100 µM (inactive)
GI50 [2]: > 100 µM (inactive)
GI50 [3]: 62.7 µM (inactive)
GI50 [4]: > 100 µM
GI50 [5]: 42.7 µM (inactive)
GI50 [6]: 74 µM (inactive)
GI50 [7]: 44.6 µM (inactive)
GI50 [8]: > 100 µM (inactive)
GI50 [9]: 28.6 µM (inactive)
GI50 [11]: 97.1 µM (inactive)
GI50 [12]: > 100 µM (inactive)
GI50 [13]: > 100 µM (inactive)
GI50 [14]: 37.8 µM (inactive)
GI50 [15]: > 100 µM (inactive)
GI50 [16]: > 100 µM (inactive)
GI50 [17]: 24.8 µM (inactive)

Cc1ccc(S(=O)(=O)n2cc(-c3cc(C(F)(F)F)ccn3)c3cc(Br)ccc32)cc1
GI50 [1]: 59.2 µM (inactive)
GI50 [2]: 29.6 µM (inactive)
GI50 [3]: 16.4 µM (inactive)
GI50 [4]: 21.9 µM
GI50 [5]: 49.1 µM (inactive)
GI50 [6]: 15 µM (inactive)
GI50 [7]: 17.3 µM (inactive)
GI50 [8]: 46.2 µM (inactive)
GI50 [9]: 20.7 µM (inactive)
GI50 [11]: 34.2 µM (inactive)
GI50 [12]: 12.2 µM (inactive)
GI50 [14]: 20.7 µM (inactive)
GI50 [15]: 16 µM (inactive)
GI50 [16]: 74.6 µM (inactive)
GI50 [17]: 27 µM (inactive)

CC1=C(C(=O)NNC(=O)C(N)=O)CC(C(=O)NNC(=O)C(N)=O)=C(C)N1
GI50 [1]: > 100 µM (inactive)
GI50 [2]: > 100 µM (inactive)
GI50 [3]: > 100 µM (inactive)
GI50 [4]: > 100 µM
GI50 [5]: > 100 µM (inactive)
GI50 [6]: > 100 µM (inactive)
GI50 [7]: > 100 µM (inactive)
GI50 [8]: > 100 µM (inactive)
GI50 [10]: > 100 µM (inactive)
GI50 [11]: > 100 µM (inactive)
GI50 [12]: > 100 µM (inactive)
GI50 [13]: > 100 µM (inactive)
GI50 [14]: > 100 µM (inactive)
GI50 [15]: > 100 µM (inactive)
GI50 [16]: > 100 µM (inactive)
GI50 [17]: > 100 µM (inactive)

CN1N=C(c2ccncc2)OC1c1ccc(C(F)(F)F)cc1 (configuration not stated)
GI50 [1]: > 100 µM (inactive)
GI50 [2]: 44.6 µM (inactive)
GI50 [3]: > 100 µM (inactive)
GI50 [4]: > 100 µM
GI50 [5]: > 100 µM (inactive)
GI50 [6]: > 100 µM (inactive)
GI50 [7]: 63.5 µM (inactive)
GI50 [8]: > 100 µM (inactive)
GI50 [10]: > 100 µM (inactive)
GI50 [11]: > 100 µM (inactive)
GI50 [12]: > 100 µM (inactive)
GI50 [13]: > 100 µM (inactive)
GI50 [14]: > 100 µM (inactive)
GI50 [15]: > 100 µM (inactive)
GI50 [16]: > 100 µM (inactive)
GI50 [17]: > 100 µM (inactive)

CC(C)(CC1(C)NC(=O)NC1=O)OCc1ccccc1 (configuration not stated)
GI50 [2]: > 100 µM (inactive)
GI50 [3]: > 100 µM (inactive)
GI50 [4]: > 100 µM
GI50 [5]: > 100 µM (inactive)
GI50 [6]: > 100 µM (inactive)
GI50 [7]: > 100 µM (inactive)
GI50 [8]: > 100 µM (inactive)
GI50 [9]: > 100 µM (inactive)
GI50 [10]: > 100 µM (inactive)
GI50 [11]: > 100 µM (inactive)
GI50 [12]: > 100 µM (inactive)
GI50 [13]: > 100 µM (inactive)
GI50 [14]: > 100 µM (inactive)
GI50 [15]: > 100 µM (inactive)
GI50 [16]: > 100 µM (inactive)
GI50 [17]: > 100 µM (inactive)

CCOC(=O)NC(C(F)(F)F)(C(F)(F)F)P(=O)(OC(C)C)OC(C)C
GI50 [1]: > 100 µM (inactive)
GI50 [2]: > 100 µM (inactive)
GI50 [3]: > 100 µM (inactive)
GI50 [4]: > 100 µM
GI50 [5]: > 100 µM (inactive)
GI50 [6]: > 100 µM (inactive)
GI50 [7]: > 100 µM (inactive)
GI50 [8]: > 100 µM (inactive)
GI50 [9]: > 100 µM (inactive)
GI50 [11]: > 100 µM (inactive)
GI50 [12]: > 100 µM (inactive)
GI50 [13]: > 100 µM (inactive)
GI50 [14]: > 100 µM (inactive)
GI50 [15]: > 100 µM (inactive)
GI50 [16]: > 100 µM (inactive)
GI50 [17]: > 100 µM (inactive)

CN1Cc2cc(O)c(O)cc2C(O)C1 (configuration not stated)
GI50 [1]: > 100 µM (inactive)
GI50 [2]: > 100 µM (inactive)
GI50 [3]: > 100 µM (inactive)
GI50 [5]: > 100 µM (inactive)
GI50 [6]: > 100 µM (inactive)
GI50 [7]: > 100 µM (inactive)
GI50 [8]: 82.6 µM (inactive)
GI50 [9]: > 100 µM (inactive)
GI50 [10]: 49.3 µM (inactive)
GI50 [11]: > 100 µM (inactive)
GI50 [12]: > 100 µM (inactive)
GI50 [13]: > 100 µM (inactive)
GI50 [14]: > 100 µM (inactive)
GI50 [15]: > 100 µM (inactive)
GI50 [16]: > 100 µM (inactive)
GI50 [17]: > 100 µM (inactive)
